Consider 19 compounds from patent publication US11987575B2, “Tricyclic compounds as BCR-ABL inhibitors” (ASCENTAGE PHARMA (SUZHOU) CO., LTD., priority 2019, dated 2024).

Test [1] addresses BaF3 (T315I mutant) (Homo sapiens, UniProt P00519, T315I, cells depend on it). The test is described as follows: WST (CCK-8) anti-proliferative assay, BaF3 T315I mutant. Conditions: read-out: BaF3 (T315I mutant), 72 h treatment, CCK-8 readout OD 450 nm.
Description: (§1) The anti-proliferative effect of representative compounds of the present disclosure was determined by a water-soluble tetrazolium (WST)-based assay using Cell Counting Kit-8 (CCK-8). Cells were seeded in 96-well plates and treated with different concentrations of test articles for 72 h. Each treatment was tested in triplicate. Briefly, a series of 9 concentrations were chosen for each test article and added at 100 μl/well into a 96-well plate. Each concentration was tested in triplicate. 100 μl of diluent was added into 3-6 wells in the same plate for cell control group, and another set of 3-6 wells was used as a blank control.
(§2) In each well, 100 μl of cell suspension (containing optimal cell numbers, which creates approximately 100% confluence of cells in control wells based on by the absorbance (OD) value) was dispensed into the same 96-well plate except for the blank well. The plate was then cultured at 37° C. in an incubator in an atmosphere with 5% CO2 for 72 h. At the end of the treatments, 20 μl/well of CCK-8 reagent was directly added to each well. The plate was then incubated at 37° C. in an incubator in an atmosphere with 5% CO2 for 2-4 hours.
(§3) The cells viability was calculated using the mean OD value of triplicated wells following the equation below: (OD sample−OD blank)/(OD cell control−OD blank)×100 IC50 values were calculated with Graphpad Prism 6.0 software using nonlinear regression (curve fitting) type data analysis.
In test [2] the target is BaF3(WT) (Homo sapiens, UniProt P00519). The test is described as follows: WST (CCK-8) anti-proliferative assay, BaF3 WT. The following applies: read-out: BaF3(WT); BaF3 WT cells, 72 h treatment, CCK-8 readout OD 450 nm.
Description: as §1, §2, §3

Take `CC(=O)NC1CCC2c3cc(C(=O)Nc4ccc(OC(F)(F)Cl)cc4)cc(-c4cccnc4)c3N(C(C)C)C12` (centres unmarked) [Compound 26]: the GI50 in test [1] is 0.065 µM; in test [2] it was 0.012 µM.

Regarding `CC(C)N1c2c(-c3ccn[nH]3)cc(C(=O)Nc3ccc(OC(F)(F)Cl)cc3)cc2C2CCC(NC(=O)C3CCNCC3)C21` (centres unmarked) [Compound 27], the GI50 came out at 5.06 µM in test [1] and 1.24 µM in test [2].

With `CCOC(=O)NC1CCC2c3cc(C(=O)Nc4ccc(OC(F)(F)Cl)cc4)cc(-c4ccn[nH]4)c3N(C(C)C)C12` (centres unmarked) [Compound 28], the GI50 in test [1] was 0.168 µM; in test [2], 0.019 µM.

As for `CC(C)N1c2c(-c3ccn[nH]3)cc(C(=O)Nc3ccc(OC(F)(F)Cl)cc3)cc2C2CCC(NC(=O)C3CN(C)C3)C21` (centres unmarked) [Compound 29, N-(4-(chlorodifluoromethoxy)phenyl)-4-isopropyl-3-(1-methylazetidine-3-carboxamido)-5-(1H-pyrazol-5-yl)-1,2,3,3a,4,8b-hexahydrocyclopenta[b]indole-7-carboxamide], the GI50 stood at 1.26 µM in test [1] and 0.177 µM in test [2].

For the compound `CC(C)N1c2c(-c3ccn[nH]3)cc(C(=O)Nc3ccc(OC(F)(F)Cl)cc3)cc2C2CCC(NC(=O)c3cocn3)C21` (centres unmarked) [Compound 30], the GI50 in test [1] was 0.064 µM; in test [2], 0.016 µM.

As to `CC(C)N1c2c(-c3ccn[nH]3)cc(C(=O)Nc3ccc(OC(F)(F)Cl)cc3)cc2C2CCC(NC(=O)C3CCOCC3)C21` (centres unmarked) [Compound 31], the GI50 in test [1] came to 0.04 µM; in test [2], 0.015 µM.

For `CC(C)N1c2c(-c3ccn[nH]3)cc(C(=O)Nc3ccc(OC(F)(F)Cl)cc3)cc2C2CCC(NC(=O)C3CCN(C)CC3)C21` (centres unmarked) [Compound 32], the GI50 in test [1] stood at 2.11 µM; in test [2], 0.491 µM.

Consider `CC(C)N1c2c(-c3ccn[nH]3)cc(C(=O)Nc3ccc(OC(F)(F)Cl)cc3)cc2C2CCC(NC(=O)Nc3cnccn3)C21` (centres unmarked) [Compound 33, N-(4-(chlorodifluoromethoxy)phenyl)-4-isopropyl-3-(3-(pyrazin-2-yl)ureido)-5-(1H-pyrazol-5-yl)-1,2,3,3a,4,8b-hexahydrocyclopenta[b]indole-7-carboxamide], for which the GI50 was determined as 0.109 µM in test [1] and 0.014 µM in test [2].

For the compound `CC(C)N1c2c(-c3ccn[nH]3)cc(C(=O)Nc3ccc(OC(F)(F)Cl)cc3)cc2C2CCC(Nc3cnccn3)C21` (centres unmarked) [Compound 34, N-(4-(chlorodifluoromethoxy)phenyl)-4-isopropyl-3-(pyrazin-2-ylamino)-5-(1H-pyrazol-5-yl)-1,2,3,3a,4,8b-hexahydrocyclopenta[b]indole-7-carboxamide], the GI50 in test [1] was 0.411 µM; in test [2], 0.017 µM.

With `CC(C)N1c2c(-c3ccn[nH]3)cc(C(=O)Nc3ccc(OC(F)(F)Cl)cc3)cc2C2CCC(N3CCCC3=O)C21` (centres unmarked) [Compound 35, N-(4-(chlorodifluoromethoxy)phenyl)-4-isopropyl-3-(2-oxopyrrolidin-1-yl)-5-(1H-pyrazol-5-yl)-1,2,3,3a,4,8b-hexahydrocyclopenta[b]indole-7-carboxamide], the GI50 in test [1] stood at 0.055 µM; in test [2] it was 0.012 µM.

Consider `CC(C)N1c2c(-c3ccn[nH]3)cc(C(=O)Nc3ccc(OC(F)(F)Cl)cc3)cc2C2CCC(N3CCCCC3=O)C21` (centres unmarked) [Compound 36, N-(4-(chlorodifluoromethoxy)phenyl)-4-isopropyl-3-(2-oxopiperidin-1-yl)-5-(1H-pyrazol-5-yl)-1,2,3,3a,4,8b-hexahydrocyclopenta[b]indole-7-carboxamide], for which the GI50 in test [1] is 0.084 µM; in test [2] it was 0.009 µM.

Turning to `CC(C)N1c2c(-c3ccn[nH]3)cc(C(=O)Nc3ccc(OC(F)(F)Cl)cc3)cc2C2CCC(N3CCCS3(=O)=O)C21` (centres unmarked) [Compound 37, N-(4-(chlorodifluoromethoxy)phenyl)-3-(1,1-dioxidoisothiazolidin-2-yl)-4-isopropyl-5-(1H-pyrazol-5-yl)-1,2,3,3a,4,8b-hexahydrocyclopenta[b]indole-7-carboxamide], the GI50 was found to be 0.245 µM in test [1] and 0.025 µM in test [2].

`CC(C)N1c2c(-c3ccn[nH]3)cc(C(=O)Nc3ccc(OC(F)(F)Cl)cc3)cc2C2CCC(N3CCNC3=O)C21` (centres unmarked) [Compound 38, N-(4-(chlorodifluoromethoxy)phenyl)-4-isopropyl-3-(2-oxoimidazolidin-1-yl)-5-(1H-pyrazol-5-yl)-1,2,3,3a,4,8b-hexahydrocyclopenta[b]indole-7-carboxamide]: the GI50 in test [1] turned out to be 0.077 µM; in test [2], 0.018 µM.

`CC(C)N1c2c(-c3ccn[nH]3)cc(C(=O)Nc3ccc(OC(F)(F)Cl)cc3)cc2C2CCC(NC(=O)CCC(=O)O)C21` (centres unmarked) [Compound 39, 4-((7-((4-(chlorodifluoromethoxy)phenyl)carbamoyl)-4-isopropyl-5-(1H-pyrazol-5-yl)-1,2,3,3a,4,8b-hexahydrocyclopenta[b]indol-3-yl)amino)-4-oxobutanoic acid]: the values for the GI50 in test [1] and in test [2] were 5.71 µM and 2.76 µM, respectively.

For `CC(C)N1c2c(-c3ccn[nH]3)cc(C(=O)Nc3ccc(OC(F)(F)Cl)cc3)cc2C2CCN(C)CC21` (centres unmarked) [Compound 40, N-(4-(chlorodifluoromethoxy)phenyl)-9-isopropyl-2-methyl-8-(1H-pyrazol-5-yl)-2,3,4,4a,9,9a-hexahydro-1H-pyrido[3,4-b]indole-6-carboxamide], the GI50 was determined as 1.11 µM in test [1] and 0.358 µM in test [2].

Regarding `CC(C)N1c2c(-c3ccn[nH]3)cc(C(=O)Nc3ccc(OC(F)(F)Cl)cc3)cc2C2CCN(CC(F)(F)F)CC21` (centres unmarked) [Compound 41, N-(4-(chlorodifluoromethoxy)phenyl)-9-isopropyl-8-(1H-pyrazol-5-yl)-2-(2,2,2-trifluoroethyl)-2,3,4,4a,9,9a-hexahydro-1H-pyrido[3,4-b]indole-6-carboxamide], the figures for the GI50 in test [1] and in test [2] were 0.85 µM and 0.12 µM, respectively.

Consider `CC(=O)N1CCC2c3cc(C(=O)Nc4ccc(OC(F)(F)Cl)cc4)cc(-c4ccn[nH]4)c3N(C(C)C)C2C1` (centres unmarked) [Compound 42, 2-acetyl-N-(4-(chlorodifluoromethoxy)phenyl)-9-isopropyl-8-(1H-pyrazol-5-yl)-2,3,4,4a,9,9a-hexahydro-1H-pyrido[3,4-b]indole-6-carboxamide], for which the GI50 in test [1] was 0.115 µM; in test [2], 0.038 µM.

Turning to `CC(=O)NC1CC2c3cc(C(=O)Nc4ccc(OC(F)(F)Cl)cc4)cc(-c4ccn[nH]4)c3N(C(C)C)C2C1` (centres unmarked) [Compound 43, 2-acetamido-N-(4-(chlorodifluoromethoxy)phenyl)-4-isopropyl-5-(1H-pyrazol-5-yl)-1,2,3,3a,4,8b-hexahydrocyclopenta[b]indole-7-carboxamide], the GI50 in test [1] worked out at 0.768 µM; in test [2] it was 0.19 µM.

For `CC(=O)N(C)C1CCC2c3cc(C(=O)Nc4ccc(OC(F)(F)Cl)cc4)cc(-c4ccn[nH]4)c3N(C(C)C)C21` (centres unmarked) [Compound 44, N-(4-(chlorodifluoromethoxy)phenyl)-4-isopropyl-3-(N-methylacetamido)-5-(1H-pyrazol-5-yl)-1,2,3,3a,4,8b-hexahydrocyclopenta[b]indole-7-carboxamide], the results for the GI50 in test [1] and in test [2] were 0.122 µM and 0.036 µM, respectively.
